In PubChem BioAssay (NCI):
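Exposure lasted 48 hours, with cells grown in 96-well plates and compounds tested at five concentrations. At the TGI there is no net growth.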

Legend:
Test in all cases: NCI tumour cell line growth inhibition, 48 h
SF-295 CNS = tested on: SF-295 CNS
IGROV1 ovarian = tested on: IGROV1 ovarian
SK-MEL-5 melanoma = tested on: SK-MEL-5 melanoma
SNB-75 CNS = tested on: SNB-75 CNS
COLO 205 colon = tested on: COLO 205 colon
CCRF-CEM leukemia = tested on: CCRF-CEM leukemia
HCC-2998 colon = tested on: HCC-2998 colon
CAKI-1 renal = tested on: CAKI-1 renal
SK-OV-3 ovarian = tested on: SK-OV-3 ovarian
ACHN renal = tested on: ACHN renal
NCI-H226 lung = tested on: NCI-H226 lung
HL-60(TB) leukemia = tested on: HL-60(TB) leukemia
KM20L2 colon = tested on: KM20L2 colon
OVCAR-5 ovarian = tested on: OVCAR-5 ovarian
K-562 leukemia = tested on: K-562 leukemia
MALME-3M melanoma = tested on: MALME-3M melanoma
RXF 393 renal = tested on: RXF 393 renal
A498 renal = tested on: A498 renal
SK-MEL-2 melanoma = tested on: SK-MEL-2 melanoma
KM12 colon = tested on: KM12 colon
HOP-92 NSCLC = tested on: HOP-92 NSCLC
786-0 renal = tested on: 786-0 renal
SN12C renal = tested on: SN12C renal
HCT-15 colon = tested on: HCT-15 colon
HOP-18 NSCLC = tested on: HOP-18 NSCLC
DU-145 prostate = tested on: DU-145 prostate
NCI-H522 lung = tested on: NCI-H522 lung
OVCAR-3 ovarian = tested on: OVCAR-3 ovarian
UO-31 renal = tested on: UO-31 renal
HT29 colon = tested on: HT29 colon
MOLT-4 leukemia = tested on: MOLT-4 leukemia
EKVX NSCLC = tested on: EKVX NSCLC
UACC-62 melanoma = tested on: UACC-62 melanoma
NCI/ADR-RES ovarian = tested on: NCI/ADR-RES ovarian
DLD-1 colon = tested on: DLD-1 colon
SR leukemia = tested on: SR leukemia
TK-10 renal = tested on: TK-10 renal
SF-539 CNS = tested on: SF-539 CNS
HOP-62 NSCLC = tested on: HOP-62 NSCLC
XF 498 CNS = tested on: XF 498 CNS
UACC-257 melanoma = tested on: UACC-257 melanoma
SNB-19 CNS = tested on: SNB-19 CNS
DMS 114 small cell lung = tested on: DMS 114 small cell lung
NCI-H460 lung = tested on: NCI-H460 lung
NCI-H23 lung = tested on: NCI-H23 lung
DMS 273 small cell lung = tested on: DMS 273 small cell lung
LXFL 529 NSCLC = tested on: LXFL 529 NSCLC
A549 NSCLC = tested on: A549 NSCLC
U251 CNS = tested on: U251 CNS
SW-620 colon = tested on: SW-620 colon
SF-268 CNS = tested on: SF-268 CNS
OVCAR-4 ovarian = tested on: OVCAR-4 ovarian
SK-MEL-28 melanoma = tested on: SK-MEL-28 melanoma
HCT-116 colon = tested on: HCT-116 colon
RPMI-8226 leukemia = tested on: RPMI-8226 leukemia
OVCAR-8 ovarian = tested on: OVCAR-8 ovarian
LOX IMVI melanoma = tested on: LOX IMVI melanoma
M14 melanoma = tested on: M14 melanoma

What does the source list for `CCCCC(=O)OC[n+]1ccc2c(C)c3[nH]c4ccccc4c3c(C)c2c1`?
TGI (SF-295 CNS): 1.97 µM; TGI (IGROV1 ovarian): 6.23 µM; TGI (SK-MEL-5 melanoma): 2.84 µM; TGI (SNB-75 CNS): 2.59 µM; TGI (COLO 205 colon): 2.22 µM; TGI (CCRF-CEM leukemia): 4.08 µM; TGI (HCC-2998 colon): 0.978 µM; TGI (CAKI-1 renal): 4.56 µM; TGI (SK-OV-3 ovarian): 2.64 µM; TGI (ACHN renal): 1.81 µM; TGI (NCI-H226 lung): 2.06 µM; TGI (HL-60(TB) leukemia): 2.93 µM; TGI (KM20L2 colon): 2.79 µM; TGI (OVCAR-5 ovarian): 1.82 µM; TGI (K-562 leukemia): 1.63 µM; TGI (MALME-3M melanoma): 2.98 µM; TGI (RXF 393 renal): 2.52 µM; TGI (A498 renal): 2.62 µM; TGI (SK-MEL-2 melanoma): 11.5 µM; TGI (KM12 colon): 2 µM; TGI (HOP-92 NSCLC): 6.44 µM; TGI (786-0 renal): 1.62 µM; TGI (SN12C renal): 2 µM; TGI (HCT-15 colon): 1.59 µM; TGI (HOP-18 NSCLC): 9.74 µM; TGI (DU-145 prostate): 2.73 µM; TGI (NCI-H522 lung): 2.33 µM; TGI (OVCAR-3 ovarian): 2.54 µM; TGI (UO-31 renal): 3.69 µM; TGI (HT29 colon): 2.44 µM; TGI (MOLT-4 leukemia): 3.01 µM; TGI (EKVX NSCLC): 3.04 µM; TGI (UACC-62 melanoma): 1.72 µM; TGI (NCI/ADR-RES ovarian): 2.93 µM; TGI (DLD-1 colon): 1.64 µM; TGI (SR leukemia): 2.31 µM; TGI (TK-10 renal): 5.01 µM; TGI (SF-539 CNS): 2 µM; TGI (HOP-62 NSCLC): 2.05 µM

Which results are given for `CSCCOC(=O)C(=[N+]=[N-])c1ccc([N+](=O)[O-])cc1`?
TGI (SF-295 CNS): > 100 µM; TGI (IGROV1 ovarian): > 100 µM; TGI (SNB-75 CNS): > 100 µM; TGI (COLO 205 colon): > 100 µM; TGI (CCRF-CEM leukemia): > 100 µM; TGI (HCC-2998 colon): > 100 µM; TGI (XF 498 CNS): > 100 µM; TGI (CAKI-1 renal): > 100 µM; TGI (SK-OV-3 ovarian): > 100 µM; TGI (ACHN renal): > 100 µM; TGI (NCI-H226 lung): > 100 µM; TGI (HL-60(TB) leukemia): > 100 µM; TGI (KM20L2 colon): > 100 µM; TGI (OVCAR-5 ovarian): > 100 µM; TGI (K-562 leukemia): > 100 µM; TGI (UACC-257 melanoma): > 100 µM; TGI (MALME-3M melanoma): > 100 µM; TGI (SNB-19 CNS): > 100 µM; TGI (DMS 114 small cell lung): > 100 µM; TGI (RXF 393 renal): > 100 µM; TGI (NCI-H460 lung): > 100 µM; TGI (NCI-H23 lung): > 100 µM; TGI (DMS 273 small cell lung): > 100 µM; TGI (LXFL 529 NSCLC): > 100 µM; TGI (A549 NSCLC): > 100 µM; TGI (U251 CNS): > 100 µM; TGI (SK-MEL-2 melanoma): > 100 µM; TGI (SW-620 colon): > 100 µM; TGI (SF-268 CNS): > 100 µM; TGI (KM12 colon): > 100 µM; TGI (OVCAR-4 ovarian): > 100 µM; TGI (786-0 renal): > 100 µM; TGI (SN12C renal): > 100 µM; TGI (HCT-15 colon): > 100 µM; TGI (NCI-H522 lung): > 100 µM; TGI (OVCAR-3 ovarian): > 100 µM; TGI (UO-31 renal): > 100 µM; TGI (HT29 colon): > 100 µM; TGI (SK-MEL-28 melanoma): > 100 µM; TGI (HCT-116 colon): > 100 µM; TGI (MOLT-4 leukemia): > 100 µM; TGI (EKVX NSCLC): > 100 µM; TGI (RPMI-8226 leukemia): > 100 µM; TGI (OVCAR-8 ovarian): > 100 µM; TGI (DLD-1 colon): > 100 µM; TGI (LOX IMVI melanoma): > 100 µM; TGI (SR leukemia): > 100 µM; TGI (TK-10 renal): > 100 µM; TGI (SF-539 CNS): > 100 µM; TGI (HOP-62 NSCLC): > 100 µM; TGI (M14 melanoma): > 100 µM
